In brackets after ≈: the same amount, converted by molar mass. Read-outs that look alike come from different tables or passages of the source. Positions of bridges follow the written chain, without caps; N, C: chain ends. Residues, ends and D or L forms follow the SMILES beside them.
Experiments:
[1] = tested on: freshly isolated human erythrocytes (hRBCs); assay: Hemolysis assay (hemoglobin release); assay type: cell-based
Excerpt: To assess the hemolytic activity of the compounds, freshly isolated human erythrocytes (hRBCs) were used according to the methodology described in a previous study. Melittin was used as a positive peptide control that induces significant hemolysis. Isotonic phosphate buffer (PBS) served as a negative control, while 0.1% Triton X-100 solution was used as a control for complete hemolysis.

[2] = tested on: human keratinocyte cell line (HaCaT); assay: Cytotoxicity MTT assay; assay type: cell-based
Description: In order to evaluate the cytotoxicity of the peptides against a human keratinocyte cell line (HaCaT, Cat. No. 300493) (Cell Lines Service, Köln, Germany), the colorimetric 3-(4,5-dimethylthiazol-2-yl)-2,5-diphenyltetrazolium bromide (MTT) dye reduction assay was performed, as described in a previous publication. Wells containing no peptide were used as a 100% survival control. Each peptide was tested in two separate experiments to ensure the reliability of the results.

M. luteus B-1314 = assay type: cell-based, Micrococcus luteus; conditions: B-1314, 24 h
Description: (§1) The antimicrobial activity of the peptides was determined using two-fold serial dilutions in sterile 96-well flat-bottom polystyrene microplates (Eppendorf, Hamburg, Germany) (Cat. No. 0030730011), as previously described. The following strains of bacteria were used: E. coli ATCC 25922, E. coli ML35p (ATCC collection), E. coli BW 25113 (Keio collection), Pseudomonas aeruginosa PAO1 (ATCC collection), P. aeruginosa ATCC 27853, Klebsiella pneumoniae ATCC 700603, Staphylococcus aureus 209P (ATCC collection), S. aureus ATCC 29213, and Micrococcus luteus B-1314 (VKM collection). Acinetobacter baumannii (strain XDR CI 2675) was provided by the I.M. Sechenov First Moscow State Medical University hospital. After a 24 h incubation period, the metabolic activity of the bacteria was assessed by adding 20 µL of a redox indicator, resazurin (Sigma-Aldrich, St. Louis, MO, USA), at a concentration of 0.1 mg/mL, to the wells. The plate was then incubated for a further two hours. The minimum inhibitory concentration (MIC) was determined as the lowest concentration of the peptide at which no color change in the resazurin indicator was observed. The results were presented as median values, which were determined based on at least three independent experiments carried out in triplicate.

S. aureus ATCC 29213 = assay type: cell-based, Staphylococcus aureus; conditions: ATCC 29213, 24 h
Description: as §1

S. aureus 209P = assay type: cell-based, Staphylococcus aureus; conditions: 24 h
Description: as §1

[3] = tested on: K. pneumoniae ATCC 700603; assay type: cell-based, Klebsiella pneumoniae; conditions: ATCC 700603, 24 h
Description: as §1

P. aeruginosa PAO1 = assay type: cell-based, Pseudomonas aeruginosa; conditions: PAO1, 24 h
Description: as §1

P. aeruginosa ATCC 27853 = assay type: cell-based, Pseudomonas aeruginosa; conditions: ATCC 27853, 24 h
Description: as §1

E. coli BW 25113 = assay type: cell-based; conditions: two-fold serial dilutions, 24 h incubation, resazurin read-out; median of at least three independent experiments in triplicate
Description: as §1

[4] = tested on: Acinetobacter baumannii (strain XDR CI 2675); assay type: cell-based
Description: as §1

E. coli ML35p = assay type: cell-based
Description: as §1

E. coli ATCC 25922 = assay type: cell-based; conditions: ATCC 25922, 24 h
Description: as §1

all the test strains = assay type: cell-based; conditions: geometric mean over the 10 test strains
Description: as §1

SMILES	Hemolytic activity, % (64 μM) ([1]; 64 μM peptide, 1.5 h incubation, hemoglobin release, fresh hRBCs, 0.1% Triton X-100 = complete hemolysis, mean ± SD of two independent experiments)	Cell Viability, % (128 μM) ([2]; 128 μM peptide, HaCaT, MTT assay, 18 h incubation (legend; text says 24 h), mean ± SD of two independent experiments)	MIC, M. luteus B-1314 (M. luteus B-1314)	MIC, S. aureus ATCC 29213 (S. aureus ATCC 29213)	MIC, S. aureus 209P (S. aureus 209P)	MIC, K. pneumoniae ATCC 700603 [3]	Hemolytic activity, % (64 μM) ([1]; red cells of human, 64)	Cell Viability, % (128 μM) ([2]; 18 h, 128)	MIC, P. aeruginosa PAO1 (P. aeruginosa PAO1)	MIC, P. aeruginosa ATCC 27853 (P. aeruginosa ATCC 27853)	MIC, E. coli BW 25113 (E. coli BW 25113)	MIC, A. baumannii ([4]; strain XDR CI 2675, two-fold serial dilutions, 24 h incubation, resazurin read-out, median of at least three independent experiments in triplicate)	MIC, E. coli ML35p (E. coli ML35p; two-fold serial dilutions, 24 h incubation, resazurin read-out, median of at least three independent experiments in triplicate)	MIC, E. coli ATCC 25922 (E. coli ATCC 25922)	MIC (GM), geometric mean of the peptide's MICs against all the test strains (all the test strains)	MIC, A. baumannii ([4]; strain XDR CI 2675, 24 h)	MIC, E. coli ML35p (E. coli ML35p; ML35p, 24 h)
CC[C@H](C)[C@H](NC(=O)CN)C(=O)NCC(=O)N[C@@H](C)C(=O)N[C@H](C(=O)N[C@@H](CC(C)C)C(=O)N[C@@H](CCCCN)C(=O)N[C@H](C(=O)N[C@@H](CC(C)C)C(=O)N[C@H](C(=O)N[C@H](C(=O)NCC(=O)N[C@@H](CC(C)C)C(=O)N1CCC[C@H]1C(=O)N[C@@H](C)C(=O)N[C@@H](CC(C)C)C(=O)N[C@H](C(=O)N[C@@H](CO)C(=O)N[C@@H](Cc1c[nH]c2ccccc12)C(=O)N[C@H](C(=O)N[C@@H](CCCCN)C(=O)N[C@@H](CCCNC(=N)N)C(=O)N[C@@H](CCCCN)C(=O)N[C@@H](CCCNC(=N)N)C(=O)N[C@@H](CCC(N)=O)C(=O)N[C@@H](CCC(N)=O)C(N)=O)[C@@H](C)CC)[C@@H](C)CC)[C@@H](C)O)[C@@H](C)O)C(C)C)C(C)C [Melittin, reference compound]	96.0 (±7.12) %	4.1 (± 4.07) %															
CC(C)C[C@H](NC(=O)[C@H](CCCNC(=N)N)NC(=O)CNC(=O)CNC(=O)[C@@H](N)CCCNC(=N)N)C(=O)N[C@H]1CSSC[C@@H](C(=O)N[C@H](C(=O)NCC(=O)N[C@@H](CCCNC(=N)N)C(=O)O)C(C)C)NC(=O)[C@H](C(C)C)NC(=O)[C@@H]2CSSC[C@H](NC(=O)[C@H]([C@@H](C)O)NC1=O)C(=O)N[C@@H](CCCNC(=N)N)C(=O)N[C@@H](CCCNC(=N)N)C(=O)N[C@@H](CCCNC(=N)N)C(=O)N[C@@H](Cc1ccccc1)C(=O)N2 [[Y7T]] (H-RGGRLCTCRRRFCVCVGR-OH; disulfide 6-15, 8-13; N-terminus and C-terminus assumed)			4 µM (≈ 8.38 µg/mL)	16 µM (≈ 33.5 µg/mL)	16 µM (≈ 33.5 µg/mL)	8 µM (≈ 16.8 µg/mL)	4.0 (±2.54) %	15.0 (± 1.62) %	2 µM (≈ 4.19 µg/mL)	2 µM (≈ 4.19 µg/mL)	0.5 µM (≈ 1.05 µg/mL)	0.5 µM (≈ 1.05 µg/mL)	0.5 µM (≈ 1.05 µg/mL)	1 µM (≈ 2.09 µg/mL)			
CC(C)C[C@H](NC(=O)[C@H](CCCNC(=N)N)NC(=O)CNC(=O)CNC(=O)[C@@H](N)CCCNC(=N)N)C(=O)N[C@H]1CSSC[C@@H](C(=O)N[C@@H](CCCNC(=N)N)C(=O)NCC(=O)N[C@@H](CCCNC(=N)N)C(=O)O)NC(=O)[C@H](C)NC(=O)[C@@H]2CSSC[C@H](NC(=O)[C@H](Cc3ccc(O)cc3)NC1=O)C(=O)N[C@@H](CCCNC(=N)N)C(=O)N[C@@H](CCCNC(=N)N)C(=O)N[C@@H](CCCNC(=N)N)C(=O)N[C@@H](Cc1ccccc1)C(=O)N2 [[V14A,V16R]] (H-RGGRLCYCRRRFCACRGR-OH; disulfide 6-15, 8-13; N-terminus and C-terminus assumed)			4 µM (≈ 8.74 µg/mL)	32 µM (≈ 69.9 µg/mL)	32 µM (≈ 69.9 µg/mL)	32 µM (≈ 69.9 µg/mL)	1.1 (±0.15) %	110.6 (± 6.68) %	8 µM (≈ 17.5 µg/mL)	4 µM (≈ 8.74 µg/mL)	2 µM (≈ 4.37 µg/mL)			2 µM (≈ 4.37 µg/mL)	4.9 µM	0.5 µM (≈ 1.09 µg/mL)	1 µM (≈ 2.19 µg/mL)
CC(C)[C@H](NC(=O)[C@@H]1CSSC[C@H](NC(=O)[C@H](C)NC(=O)[C@H](CCCNC(=N)N)NC(=O)CNC(=O)CNC(=O)[C@@H](N)CCCNC(=N)N)C(=O)N[C@@H](Cc2ccc(O)cc2)C(=O)N[C@H]2CSSC[C@H](NC(=O)[C@H](Cc3ccccc3)NC(=O)[C@H](CCCNC(=N)N)NC(=O)[C@H](CCCNC(=N)N)NC(=O)[C@H](CCCNC(=N)N)NC2=O)C(=O)N[C@@H](C)C(=O)N1)C(=O)NCC(=O)N[C@@H](CCCNC(=N)N)C(=O)O [[L5A,V14A]] (H-RGGRACYCRRRFCACVGR-OH; disulfide 6-15, 8-13; N-terminus and C-terminus assumed)			4 µM (≈ 8.35 µg/mL)	>32 µM	4 µM (≈ 8.35 µg/mL)	8 µM (≈ 16.7 µg/mL)	4.2 (±1.08) %	38.3 (± 7.19) %	1 µM (≈ 2.09 µg/mL)	1 µM (≈ 2.09 µg/mL)	0.5 µM (≈ 1.04 µg/mL)			0.5 µM (≈ 1.04 µg/mL)		0.25 µM (≈ 0.522 µg/mL)	0.5 µM (≈ 1.04 µg/mL)
CC(C)[C@@H]1NC(=O)[C@@H]2CSSC[C@H](NC(=O)[C@H](Cc3ccc(O)cc3)NC(=O)[C@@H](NC(=O)[C@H](C)NC(=O)[C@H](CCCNC(=N)N)NC(=O)CNC(=O)CNC(=O)[C@@H](N)CCCNC(=N)N)CSSC[C@@H](C(=O)N[C@@H](C)C(=O)NCC(=O)N[C@@H](CCCNC(=N)N)C(=O)O)NC1=O)C(=O)N[C@@H](CCCNC(=N)N)C(=O)N[C@@H](CCCNC(=N)N)C(=O)N[C@@H](CCCNC(=N)N)C(=O)N[C@@H](Cc1ccccc1)C(=O)N2 [[L5A,V16A]] (H-RGGRACYCRRRFCVCAGR-OH; disulfide 6-15, 8-13; N-terminus and C-terminus assumed)			4 µM (≈ 8.35 µg/mL)	>32 µM	4 µM (≈ 8.35 µg/mL)	8 µM (≈ 16.7 µg/mL)	3.6 (±1.72) %	17.0 (± 2.18) %	1 µM (≈ 2.09 µg/mL)	1 µM (≈ 2.09 µg/mL)	0.5 µM (≈ 1.04 µg/mL)			0.5 µM (≈ 1.04 µg/mL)		0.25 µM (≈ 0.522 µg/mL)	0.5 µM (≈ 1.04 µg/mL)
CC(C)C[C@H](NC(=O)[C@H](CCCNC(=N)N)NC(=O)CNC(=O)CNC(=O)[C@@H](N)CCCNC(=N)N)C(=O)N[C@H]1CSSC[C@@H](C(=O)N[C@@H](CCCNC(=N)N)C(=O)NCC(=O)N[C@@H](CCCNC(=N)N)C(=O)O)NC(=O)[C@H](C(C)C)NC(=O)[C@@H]2CSSC[C@H](NC(=O)[C@H]([C@@H](C)O)NC1=O)C(=O)N[C@@H](CCCNC(=N)N)C(=O)N[C@@H](CCCNC(=N)N)C(=O)N[C@@H](CCCNC(=N)N)C(=O)N[C@@H](Cc1ccccc1)C(=O)N2 [[Y7T,V16R]] (H-RGGRLCTCRRRFCVCRGR-OH; disulfide 6-15, 8-13; N-terminus and C-terminus assumed)			4 µM (≈ 8.61 µg/mL)	>32 µM	>32 µM	>32 µM	1.4 (±0.66) %	72.8 (± 5.46) %	>32 µM	>32 µM	8 µM (≈ 17.2 µg/mL)			8 µM (≈ 17.2 µg/mL)		4 µM (≈ 8.61 µg/mL)	4 µM (≈ 8.61 µg/mL)
CC(C)C[C@H](NC(=O)CNC(=O)CNC(=O)[C@@H](N)CCCNC(=N)N)C(=O)N[C@H]1CSSC[C@@H](C(=O)N[C@H](C(=O)NCC(=O)N[C@@H](CCCNC(=N)N)C(N)=O)C(C)C)NC(=O)[C@H](C(C)C)NC(=O)[C@@H]2CSSC[C@H](NC(=O)[C@H](Cc3ccc(O)cc3)NC1=O)C(=O)N[C@@H](CCCNC(=N)N)C(=O)NCC(=O)N[C@@H](CCCNC(=N)N)C(=O)N[C@@H](Cc1ccccc1)C(=O)N2 [Iseganan, reference compound] (H-RGGLCYCRGRFCVCVGR-NH2; disulfide 5-14, 7-12)			0.5 µM (≈ 0.95 µg/mL)	4 µM (≈ 7.6 µg/mL)	2 µM (≈ 3.8 µg/mL)	4 µM (≈ 7.6 µg/mL)	99.6 (±0.54) %	19.5 (±7.18) %	8 µM (≈ 15.2 µg/mL)	4 µM (≈ 7.6 µg/mL)				0.5 µM (≈ 0.95 µg/mL)			
